Results: patent US7932266B2, “Isoquinoline derivatives as calpain inhibitors” (Consejo Superior de Investigaciones Cientificas, priority 2004, dated 2011)

Columns and labels:
[1] = target: T1, calpain I from porcine erythrocyte (Sus scrofa, UniProt P35750); assay: Enzyme activity test: inhibition of calpain (fluorimetric, BODIPY-FL casein substrate); assay type: biochemical; settings: 7 inhibitor concentrations between 10 nM and 200 μM
T1 construct: calpain I from porcine erythrocyte (Calbiochem, Cat No 208712) was used as enzyme; purchased Calbiochem 208712; host or cells: porcine erythrocyte (natural source)
T1 sequence (P35750 1-714): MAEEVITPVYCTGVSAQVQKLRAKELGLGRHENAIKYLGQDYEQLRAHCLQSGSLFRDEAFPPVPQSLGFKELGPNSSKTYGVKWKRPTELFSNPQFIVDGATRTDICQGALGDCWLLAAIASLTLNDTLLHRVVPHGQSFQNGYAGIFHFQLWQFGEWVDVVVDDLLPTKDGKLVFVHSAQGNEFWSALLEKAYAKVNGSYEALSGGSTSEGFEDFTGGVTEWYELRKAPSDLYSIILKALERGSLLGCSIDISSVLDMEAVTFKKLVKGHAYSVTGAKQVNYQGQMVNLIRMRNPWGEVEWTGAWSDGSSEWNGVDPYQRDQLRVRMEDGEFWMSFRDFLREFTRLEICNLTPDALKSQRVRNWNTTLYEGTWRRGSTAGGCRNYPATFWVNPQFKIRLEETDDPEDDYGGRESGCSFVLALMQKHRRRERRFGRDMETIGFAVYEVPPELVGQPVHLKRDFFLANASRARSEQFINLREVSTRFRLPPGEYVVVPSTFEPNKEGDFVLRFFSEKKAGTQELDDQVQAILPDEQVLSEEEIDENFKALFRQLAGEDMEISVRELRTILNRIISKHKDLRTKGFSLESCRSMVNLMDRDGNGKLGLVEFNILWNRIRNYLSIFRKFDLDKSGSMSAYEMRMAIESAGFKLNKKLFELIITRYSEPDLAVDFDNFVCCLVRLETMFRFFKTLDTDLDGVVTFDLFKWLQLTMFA
T1 sequence (P04574 1-266 partner): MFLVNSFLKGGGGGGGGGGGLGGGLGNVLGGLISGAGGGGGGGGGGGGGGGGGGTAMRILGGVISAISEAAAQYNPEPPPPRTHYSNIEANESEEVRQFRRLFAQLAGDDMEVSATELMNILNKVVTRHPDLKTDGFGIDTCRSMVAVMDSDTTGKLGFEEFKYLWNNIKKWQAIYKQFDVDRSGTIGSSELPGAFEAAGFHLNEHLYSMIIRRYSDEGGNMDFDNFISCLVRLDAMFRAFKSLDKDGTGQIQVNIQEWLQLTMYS
Text: The capacity to inhibit calpain has been quantified in terms of the value of IC50, which is defined as the concentration of inhibitor that reduces the catalytic activity of an enzyme by half. The lower the value of IC50, the more powerful the inhibitor. Inhibition results on calpain I (the most relevant from a physiological point of view) of some compounds of the present invention are shown in table 1 and in FIG. 1. Given that calpain II, also known as milli-calpain, needs a greater amount of Ca^2+ for activation, it might not possibly have such a relevant physiological role since such a concentration of Ca^2+ would cause cell death before the milli-calpain could become activated. For this reason, the inhibition tests have been performed for calpain I, though they can be extrapolated for calpain II.
The calpain inhibition capacity has been quantified in terms of the value of IC50, which is defined as the concentration of inhibitor that reduces the catalytic activity of an enzyme by half. The lower the value of IC50, the more powerful the inhibitor. Inhibition results on calpain I (the most relevant from a physiological point of view) of some compounds of the present invention are shown in table 1 and in FIG. 1.
The experiments were conducted spectrofluorimetrically using a Spectrofluor Tecan Corp 93382 spectrofluorimeter, exciting at […] and measuring at […]. Casein marked with BODIPY-FL® (Molecular Probes) was used as substrate and calpain I from porcine erythrocyte (Calbiochem, Cat No 208712) was used as enzyme. The freeze-dried substrate is component A of the protease assay kit EnzChek® green fluorescence from Molecular Probes (reference # E-6638); component B, known as 20× digestion buffer, contains 13 mL of 200 mM Tris-HCl, pH 7.8 and 2 mM sodium azide. The commercial calpain I that was used has a concentration of 1 mg in 1 mL of aqueous solution (the solution is 20 mM imidazol-HCl, pH 6.8, 1 mM EDTA, 1 mM EGTA, 5 mM β-mercaptoethanol, containing 30% glycerine).
2.5 mL of 20× digestion buffer (component B of the kit from Molecular Probes) was diluted with water to a total volume of 50 mL.
200 μg of freeze-dried substrate (component A of the kit from Molecular Probes) was dissolved in 200 μL of phosphate saline buffer. This solution was decanted into a graduated flask and diluted with the digestion solution to a total volume of 40 mL.
20 μL of commercial solution of calpain was diluted with the digestion solution to a total volume of 200 μL.
The inhibitor was dissolved in DMSO. Each inhibitor was assayed at 7 different concentrations between 10 nM and 200 μM.
All the data were obtained measuring the variation in fluorescence with time. The use of a multi-cell device and Eppendorf multi-channel pipettes permitted measurement of the variation in fluorescence in up to 64 experiments. In this way, the control experiment and the experiments with the different concentrations of inhibitor was carried out in the same set of measurements. All the experiments were conducted twice.
The control experiment was carried out mixing 180 μL of casein solution and 5 μL of calpain solution. The reaction was initiated by the addition of 10 μL of a 50 μM solution of CaCl2 in water, and the fluorescence was measured from the moment of the addition of Ca^2+ (time=0) and for 250-300 seconds (measuring during 20 kinetic cycles). The variation in fluorescence (ΔF) was represented against time (t). In order to test the effect of DMSO on enzyme activity, additional control experiments were conducted adding DMSO (in the quantities used in the experiments with the inhibitors), with the same result being obtained as in the control experiment.
180 μL of casein solution, 5 μL of calpain solution and 5 μL of inhibitor solution (of variable concentration) were mixed together. […]

IC50 [1] | melting point | Compound
5 µM | 116 to 120 °C | CC[C@H](C)[C@H](NC(=O)OCC1c2ccccc2-c2ccccc21)C(=O)Nc1ccccc1-c1ccccc1NC(=O)/C=C1/c2ccccc2C(=O)N[C@H]1[C@@H](C)CC [Compound 21, (S,S,S,S,Z)-9H-fuorene-9-ylmethyl (1-{2′-[2-(3-sec-butyl-1-oxo-2,3-dihydro-1 H-isoquinolin-4-yliden)-acetylamino]-biphenyl-2-ylcarbamoyl}-2-methyl-butyl)-carbamate]
7 µM | – | CC[C@H](C)[C@@H]1NC(=O)c2ccccc2/C1=C/C(=O)Nc1ccccc1-c1ccccc1NC(=O)[C@@H](N)Cc1ccccc1 [Compound 23, (S,S,S,Z)-2-amino-N-{2′-[2-(3-sec-butyl-1-oxo-2,3-dihydro-1H-isoquinolin-4-yliden)-acetylamino]-biphenyl-2-yl}-3-phenyl-propionamide]
50 µM | – | CC[C@H](C)[C@H](N)C(=O)Nc1ccccc1-c1ccccc1NC(=O)/C=C1/c2ccccc2C(=O)N[C@H]1[C@@H](C)CC [Compound 24, (S,S,S,S,Z)-2-amino-N-{2′-[2-(3-sec-butyl-1-oxo-2,3-dihydro-1H-isoquinolin-4-yliden)-acetylamino]-biphenyl-2-yl}-3-methyl-pentanamide]
0.447 µM | – | CC[C@H](C)[C@H](NC(=O)/C=C1/c2ccccc2C(=O)N[C@H]1[C@@H](C)CC)C(=O)N[C@H](C(=O)OC)[C@@H](C)CC [Compound 25, methyl (S,S,S,S,S,Z)-2-{2-[2-(3-sec-butyl-1-oxo-2,3-dihydro-1H-isoquinolin-4-yliden)-acetylamino]-3-methyl-pentanoylamino}-3-methyl-pentanoate]
– | 193 to 196 °C | CC[C@H](C)[C@@H]1NC(=S)c2ccccc2/C1=C/C(=O)O [Compound 29, (S,S,Z)-(3-sec-butyl-1-thioxo-2,3-dihydro-1H-isoquinolin-4-yliden)-acetic acid]
– | 178 to 181 °C | CC[C@H](C)[C@H](NC(=O)/C=C1/c2ccccc2C(=S)N[C@H]1[C@@H](C)CC)C(=O)N[C@H](C(=O)OC)[C@@H](C)CC [Compound 30, methyl (S,S,S,S,S,S,Z)-2-{2-[2-(3-sec-butyl-1-thioxo-2,3-dihydro-1H-isoquinolin-4-yliden)-acetylamino]-3-methyl-pentanoylamino}-3-methyl-pentanoate]

Second part, the molecule before the results:

Compound | IC50 [1] | melting point
CC[C@H](C)[C@@H]1NC(=O)c2ccccc2/C1=C/C(=O)OC [Compound 7, methyl (S,S,Z)-(3-sec-butyl-1-oxo-2,3-dihydro-1H-isoquinolin-4-yliden)-acetate] | 0.025 µM | –
CC[C@H](C)[C@@H]1NC(=O)c2ccccc2/C1=C/C(=O)O [Compound 8, (S,S,Z)-(3-sec-butyl-1-oxo-2,3-dihydro-1H-isoquinolin-4-yliden)-acetic acid] | – | 215 to 216 °C
CCCCOC(=O)/C=C1/c2ccccc2C(=O)N[C@H]1[C@@H](C)CC [Compound 10, 1-butyl (S,S,Z)-(3-sec-butyl-1-oxo-2,3-dihydro-1H-isoquinolin-4-yliden)-acetate] | – | 110 to 112 °C
CC[C@H](C)[C@@H]1NC(=O)c2ccccc2/C1=C/C(=O)OCc1ccccc1 [Compound 11, benzyl (S,S,Z)-(3-sec-butyl-1-oxo-2,3-dihydro-1H-isoquinolin-4-yliden)-acetate] | 124 µM | 53 to 54 °C
CCC(C)C1NC(=O)c2ccccc2/C1=C/C(=O)OC/C=C\COC(=O)/C=C1/c2ccccc2C(=O)N[C@H]1[C@@H](C)CC (some centres unmarked) [Compound 12] | 85 µM | 79 to 81 °C
CC[C@H](C)[C@@H]1NC(=O)c2ccccc2/C1=C/C(=O)OCC#CCOC(=O)/C=C1/c2ccccc2C(=O)N[C@H]1[C@@H](C)CC [Compound 13] | 59 µM | 85 to 87 °C
CC[C@H](C)[C@@H]1NC(=O)c2ccccc2/C1=C/C(=O)OCc1ccc(COC(=O)/C=C2/c3ccccc3C(=O)N[C@H]2[C@@H](C)CC)cc1 [Compound 14] | 5 µM | 213 to 215 °C
CC[C@H](C)[C@@H]1NC(=O)c2ccccc2/C1=C/C(=O)NCc1ccccc1 [Compound 15, (S,S,Z)-N-benzyl-2-(3-sec-butyl-1-oxo-2,3-dihydro-1H-isoquinolin-4-yliden)-acetamide] | 140 µM | 90 to 94 °C
CC[C@H](C)[C@@H]1NC(=O)c2ccccc2/C1=C/C(=O)Nc1cccc(C(C)=O)c1 [Compound 16, (S,S,Z)-N-(3-acetyl-phenyl)-2-(3-sec-butyl-1-oxo-2,3-dihydro-1H-isoquinolin-4-yliden)-acetamide] | 130 µM | 147 to 151 °C
CC[C@H](C)[C@@H]1NC(=O)c2ccccc2/C1=C/C(=O)Nc1ccccc1-c1ccccc1N [Compound 17, (S,S,Z)-N-(2′-amino-biphenyl-2-yl)-2-(3-sec-butyl-1-oxo-2,3-dihydro-1H-isoquinolin-4-yliden)-acetamide] | 0.086 µM | –
CC[C@H](C)[C@@H]1NC(=O)c2ccccc2/C1=C/C(=O)Nc1ccccc1-c1ccccc1NC(=O)/C=C1/c2ccccc2C(=O)N[C@H]1[C@@H](C)CC [Compound 18, (S,S,S,S,Z,Z)-2,2′-bis-[(3-sec-butyl-1-oxo-2,3-dihydro-1H-isoquinolin-4-yliden)-acetylamino]biphenyl] | 0.742 µM | 177 to 180 °C
CC[C@H](C)[C@@H]1NC(=O)c2ccccc2/C1=C/C(=O)Nc1ccccc1-c1ccccc1NC(=O)[C@@H](NC(=O)OCC1c2ccccc2-c2ccccc21)C(C)C [Compound 19, (S,S,S,Z)-9H-fuorene-9-ylmethyl (1-{2′-[2-(3-sec-butyl-1-oxo-2,3-dihydro-1H-isoquinolin-4-yliden)-acetylamino]-biphenyl-2-ylcarbamoyl}-2-methyl-propyl)-carbamate] | 100 µM | 133 to 135 °C
CC[C@H](C)[C@@H]1NC(=O)c2ccccc2/C1=C/C(=O)Nc1ccccc1-c1ccccc1NC(=O)[C@H](Cc1ccccc1)NC(=O)OCC1c2ccccc2-c2ccccc21 [Compound 20, (S,S,S,Z)-9H-fuorene-9-ylmethyl (1-{2′-[2-(3-sec-butyl-1-oxo-2,3-dihydro-1H-isoquinolin-4-yliden)-acetylamino]-biphenyl-2-ylcarbamoyl}-2-phenyl-ethyl)-carbamate] | 48 µM | 108 to 110 °C
